Experiment: Binding affinity towards sigma receptor in guinea pig cerebral homogenate using [3H]DTG as radioligand
C[C@@H](Cc1ccccc1)NCCCCc1ccccc1 [((S)-1-Methyl-2-phenyl-ethyl)-(4-phenyl-butyl)-amine] showed a Ki of 6.6 nM.
With CCN[C@H](C)Cc1ccccc1 [Adiparthrol] the Ki was 660 nM.
C[C@H](Cc1ccccc1)NCCOc1ccccc1 gave a Ki of 45 nM.
Work on C[C@H](Cc1ccccc1)NCc1ccccc1 [N-Benzylamphetamine (Bam)] yielded a Ki of 117 nM.
Compound C[C@H](Cc1ccccc1)NCCC(=O)c1ccccc1 has a Ki of 56 nM.
For C=CCN1CCC2(C)c3cc(O)ccc3CC1C2C (stereo not drawn) [3-Allyl-8-hydroxy-6,11-dimethyl-1,2,3,4,5,6-hexahydro-2,6-methano-benzo[d]azocinium], the Ki was 429 nM.
C[C@@H](Cc1ccccc1)NCCCCCc1ccccc1 [((S)-1-Methyl-2-phenyl-ethyl)-(5-phenyl-pentyl)-amine] showed a Ki of 6.3 nM.
Compound C[C@@H](N)Cc1ccccc1 [(R)-amphetamine] has a Ki of 46400 nM.
With CC(Cc1ccccc1)NCCCCc1ccccc1 (stereo not drawn) the Ki was 9.3 nM.
C[C@@H](Cc1ccccc1)NCCc1ccccc1 [((S)-1-Methyl-2-phenyl-ethyl)-phenethyl-amine] showed a Ki of 31 nM.
C[C@@H](Cc1ccccc1)N(C)CCCCCc1ccccc1 showed a Ki of 2.6 nM.

Experiment: Binding affinity towards sigma opioid receptor in guinea pig cerebral homogenate using [3H]DTG as radioligand
For C[C@H](Cc1ccccc1)NCCc1ccccc1 [((R)-1-Methyl-2-phenyl-ethyl)-phenethyl-amine], the Ki was 60 nM.

Experiment: Binding affinity towards sigma opioid receptor was determined in guinea pig cerebral homogenate using [3H]haloperidol as radioligand
Compound C[C@H](Cc1ccccc1)NCCc1ccccc1 [((R)-1-Methyl-2-phenyl-ethyl)-phenethyl-amine] has a Ki of 61 nM.
